Data published in article PMC7767178 (International Journal of Molecular Sciences, 2020).
Several values for one entry are separate records, joined by “and”; a condition that tells them apart may be missing. Equal entries are not always repeated. Where two headings read alike, the source gives them in different places. Positions of bridges follow the written chain, without caps; N, C: chain ends. Residues, ends and D or L forms follow the SMILES beside them.

Columns and labels:
Format in all cases: cell-based
A. veronii ACCC61732 [1] = experiment: Post-antibiotic effect (PAE); conditions: for PAE: 2 h exposure, 1000-fold dilution, 37 °C, triplicate; for PAEs, range over 1×–4× MIC: 1× to 4× MIC
Description: The samples were taken from flasks for counting each hour until bacterial cultures became turbid. The untreated bacteria severed as controls. The PAE was calculated using the following equation: PAE = T − C, where T is the time (h) required for the CFU in the test culture to increase by 10-fold from the count immediately after the drug removal and C is the corresponding time (h) for the control. The experiment was performed in triplicate.

S. enteritidis CVCC3377 = experiment: microbe, parasite or virus in culture
Text: (§1) All experiments were repeated three times.

S. pullorum CVCC1789 = experiment: microbe, parasite or virus in culture
Text: as §1

[2] = test system: Candida albicans CMCC98001; experiment: microbe, parasite or virus in culture
Text: as §1

E. coli CVCC25922 = experiment: microbe, parasite or virus in culture
Text: as §1

A. veronii X-1-06909 = experiment: microbe, parasite or virus in culture
Text: as §1

S. pullorum CVCC533 = experiment: microbe, parasite or virus in culture
Text: as §1

[3] = test system: Staphylococcus aureus ATCC43300; experiment: microbe, parasite or virus in culture
Text: as §1

E. coli CVCC1515 = experiment: microbe, parasite or virus in culture
Text: as §1

Escherichia coli CVCC195 = experiment: microbe, parasite or virus in culture
Text: as §1

S. pullorum CVCC1809 = experiment: microbe, parasite or virus in culture
Text: as §1

[4] = test system: A. veronii ACCC61732 in biofilm; conditions: 2 h
Description: The mid-log phase A. veronii ACCC61732 cells (1 × 10^8 CFU/mL) were inoculated into in the 96-well plates and cultured for 24 h at 37 °C. The plates were washed twice with PBS. […] PBS was used as the negative control. The plates were treated with ultrasound for 5 min and the viable bacteria were counted on the TSA plates.

A. veronii ACCC61732 [5] = experiment: Time-killing curves; conditions: 2× MIC; 1 × 10^5 CFU/mL, colony counting, 0–24 h
Description: Time-killing curves were performed as previously described. […] The sample of 100 μL was taken from each flask at 0, 0.5, 1, 2, 4, 6, 8, 10, 20, and 24 h, respectively, and serially diluted for colony counting. PBS and CIP were used as the negative and positive control, respectively.

A. veronii ACCC61732 [6] = experiment: Resistance development, 30 serial passages; conditions: A. veronii ACCC61732, 30 passages (30 days)
Description: The development of bacterial resistance of peptides was performed by the MIC assays. […] GEN, CIP, and PMB were used as controls. […] The MIC values were measured as described above. The serial passaging was repeated for 30 days.

mouse erythrocytes = experiment: Hemolysis; conditions: 256 μg/mL; 8% mouse erythrocyte suspension, 37 °C, 1 h, absorbance 540 nm
Description: To determine the hemolysis of peptides, eyeball blood was collected from 6-week-old SPF ICR mice. The blood was centrifuged at 4 °C for 10 min (1500 rpm), washed three times with 0.9% physiological saline, and diluted to 8% suspension. […] Red blood cell suspensions and peptide solutions (100 μL) were mixed in 96-well plates, centrifuged at 4 °C for 5 min (1500 rpm), and incubated at 37 °C for 1 h. The supernatant was added into a 96-well plate and the UV absorbance was measured at 540 nm using a microplate reader. Physiological saline and 0.1% Triton X-100 were used as 0% and 100% hemolytic controls, respectively. The hemolytic ratio was calculated as follows: Hemolysis (%) = [(Abspeptide − Abssaline)/(Abs0.1%Triton X-100 − Abssaline)] × 100% [38].

A. veronii ATCC35624 = test system: A. veronii ATCC35624
E. coli CVCCO157 = experiment: MIC, microtiter broth dilution; conditions: 37 °C, 16–18 h, three experiments
Text: as §1

[7] = S. enteritidis CVCC3377, broth dilution, 37 °C, 16–18 h, three experiments
[8] = S. pullorum CVCC1789, broth dilution, 37 °C, 16–18 h, three experiments
[9] = E. coli CVCC25922, broth dilution, 37 °C, 16–18 h, three experiments
[10] = E. coli CVCC25922, broth dilution, 37 °C, 16–18 h, three experiments, read-out: MIC
[11] = A. veronii X-1-06909, broth dilution, 37 °C, 16–18 h, three experiments
[12] = S. pullorum CVCC533, broth dilution, 37 °C, 16–18 h, three experiments
[13] = Staphylococcus aureus ATCC43300, broth dilution, 37 °C, 16–18 h, three experiments
[14] = E. coli CVCC1515, broth dilution, 37 °C, 16–18 h, three experiments
[15] = Escherichia coli CVCC195, broth dilution, 37 °C, 16–18 h, three experiments
[16] = Escherichia coli CVCC195, broth dilution, 37 °C, 16–18 h, three experiments, read-out: MIC
[17] = S. pullorum CVCC1809, broth dilution, 37 °C, 16–18 h, three experiments
[18] = S. pullorum CVCC1809, broth dilution, 37 °C, 16–18 h, three experiments, read-out: MIC
[19] = A. veronii ATCC35624, broth dilution, 37 °C, 16–18 h, three experiments

SMILES	PAE (A. veronii ACCC61732 [1]; 1× MIC) [h]	PAE (A. veronii ACCC61732 [1]; 2× MIC) [h]	PAE (A. veronii ACCC61732 [1]; 4× MIC)	MIC (S. enteritidis CVCC3377; CVCC3377, read-out: MIC) [µM]	MIC (S. enteritidis CVCC3377; [7]) [µg/mL]	MIC (S. pullorum CVCC1789; CVCC1789, read-out: MIC) [µM]	MIC (S. pullorum CVCC1789; [8]) [µg/mL]	MIC (E. coli CVCC25922; [9]) [µg/mL]	MIC (A. veronii X-1-06909; [11]) [µg/mL]	MIC (A. veronii X-1-06909; read-out: MIC) [µM]	MIC (S. pullorum CVCC533; CVCC533, read-out: MIC) [µM]	MIC (S. pullorum CVCC533; [12]) [µg/mL]	MIC [3, 13] [µg/mL]	MIC (E. coli CVCC1515; [14]) [µg/mL]	MIC (Escherichia coli CVCC195; [15]) [µg/mL]	MIC (S. pullorum CVCC1809; [17]) [µg/mL]	bacteria in biofilm killed [4]; 8 [%]	bacteria in biofilm killed [4]; 16 [%]	time to completely kill A. veronii ACCC61732 (A. veronii ACCC61732 [5])	increase of MIC after 30 serial passages (A. veronii ACCC61732 [6])	other results
CC(C)[C@@H]1NC(=O)CNC(=O)[C@H](CC(N)=O)NC(=O)[C@H](CCCNC(=N)N)NC(=O)[C@H](Cc2ccc(O)cc2)NC(=O)[C@H](C(C)C)NC(=O)[C@@H](NC(=O)[C@@H](NC(=O)[C@H](CC(N)=O)NC(=O)[C@H](Cc2c[nH]c3ccccc23)NC(=O)[C@H](C)NC(=O)[C@H](Cc2ccccc2)NC(=O)CN)C(C)C)CSSC[C@@H](C(=O)N[C@@H](Cc2c[nH]cn2)C(=O)N[C@@H](CCCNC(=N)N)C(=O)N2CCC[C@H]2C(=O)N[C@@H](C)C(=O)N[C@@H](CC(N)=O)C(N)=O)NC(=O)[C@H](C(C)C)NC(=O)[C@H](CCCNC(=N)N)NC1=O [N6PNH2] (H-GFAWNVCVYRNGVRVCHRPAN-NH2; disulfide 7-16 (inferred))	0.52 ± 0.01	0.62 ± 0.01	0.68 h and 0.68 ± 0.01 h	0.83	2	6.62	16	8	64	26.49	13.25	32	>64	4	8	8	57.99	67.44	2 h	three-fold	PAEs, range over 1×–4× MIC (A. veronii ACCC61732 [1]): 0.52 to 0.68 h; MIC ([2]; CMCC98001, read-out: MIC): >52.98 µM; MIC (E. coli CVCC25922; [10]): 3.31 µM; MIC (E. coli CVCC1515; CVCC1515, read-out: MIC): 1.66 µM; MIC (Escherichia coli CVCC195; [16]): 3.31 µM; MIC (S. pullorum CVCC1809; [18]): 3.31 µM; hemolysis (mouse erythrocytes): 0.56%; MIC (A. veronii ATCC35624; [19]): 64 µg/mL; MIC (A. veronii ATCC35624; ATCC35624): 26.49 µM; MIC (E. coli CVCCO157): 8 µg/mL; MIC (E. coli CVCCO157; read-out: MIC): 3.31 µM
CC(C)[C@H]1NC(=O)CNC(=O)[C@@H](CC(N)=O)NC(=O)[C@@H](CCCNC(=N)N)NC(=O)[C@@H](Cc2ccc(O)cc2)NC(=O)[C@@H](C(C)C)NC(=O)[C@H](NC(=O)[C@H](NC(=O)[C@@H](CC(N)=O)NC(=O)[C@@H](Cc2c[nH]c3ccccc23)NC(=O)[C@@H](C)NC(=O)[C@@H](Cc2ccccc2)NC(=O)CN)C(C)C)CSSC[C@H](C(=O)N[C@H](Cc2c[nH]cn2)C(=O)N[C@H](CCCNC(=N)N)C(=O)N[C@H](CCCNC(=N)N)C(=O)N[C@H](C)C(=O)N[C@H](CC(N)=O)C(N)=O)NC(=O)[C@@H](C(C)C)NC(=O)[C@@H](CCCNC(=N)N)NC1=O [DN6NH2]	0.68 ± 0.01	1.13 ± 0.11	3.36 ± 0.19 h	0.81	2	6.46	16	8	32	12.93	6.46	16	4	4	8	8	64.22	66.79	≤ 1 h	seven-fold	MIC ([2]; CMCC98001): 128 µg/mL; MIC (E. coli CVCC25922; CVCC25922, read-out: MIC): 3.23 µM; MIC ([3]; Staphylococcus aureus ATCC43300, broth dilution, 37 °C, 16–18 h, three experiments, read-out: MIC): 1.62 µM; MIC (E. coli CVCC1515; E. coli CVCC1515, broth dilution, 37 °C, 16–18 h, three experiments, read-out: MIC): 1.62 µM; MIC (Escherichia coli CVCC195; CVCC195, read-out: MIC): 3.23 µM; MIC (S. pullorum CVCC1809; CVCC1809, read-out: MIC): 3.23 µM; hemolysis (mouse erythrocytes): 1.46%; MIC (A. veronii ATCC35624; [19]): 64 µg/mL; MIC (A. veronii ATCC35624; ATCC35624): 25.86 µM; MIC (E. coli CVCCO157): 4 µg/mL; MIC (E. coli CVCCO157; read-out: MIC): 1.62 µM
CC(C)[C@H](N)C(=O)N[C@@H](Cc1ccccc1)C(=O)N[C@@H](C)C(=O)N[C@@H](Cc1c[nH]c2ccccc12)C(=O)N[C@@H](CC(N)=O)C(=O)N[C@H](C(=O)N[C@H]1CSSC[C@@H](C(=O)N[C@@H](Cc2c[nH]cn2)C(=O)N[C@@H](CCCNC(=N)N)C(=O)N[C@@H](CCCNC(=N)N)C(=O)N[C@@H](C)C(=O)N[C@@H](CC(N)=O)C(N)=O)NC(=O)[C@H](C(C)C)NC(=O)[C@H](CCCNC(=N)N)NC(=O)[C@H](C(C)C)NC(=O)[C@H](C(C)C)NC(=O)[C@H](CC(N)=O)NC(=O)[C@H](CCCNC(=N)N)NC(=O)[C@H](Cc2ccc(O)cc2)NC(=O)[C@H](C(C)C)NC1=O)C(C)C [V112N6NH2] (H-VFAWNVCVYRNVVRVCHRRAN-NH2; disulfide 7-16 (inferred))	0.74 ± 0.02	1.48 ± 0.05	2.15 ± 0.13 h	0.78	2	6.25	16	8	32	12.51	6.25	16	32	4	8	8	46.21	52.04	unable completely kill	one-fold	PAEs, range over 1×–4× MIC (A. veronii ACCC61732 [1]): 0.74 to 2.15 h; MIC ([2]; CMCC98001, read-out: MIC): >50.02 µM; MIC ([2]; Candida albicans CMCC98001, broth dilution, 37 °C, 16–18 h, three experiments): >128 µg/mL; MIC (E. coli CVCC25922; [10]): 3.13 µM; MIC ([3]; ATCC43300, read-out: MIC): 12.5 µM; MIC (E. coli CVCC1515; CVCC1515, read-out: MIC): 1.56 µM; MIC (Escherichia coli CVCC195; [16]): 3.13 µM; MIC (S. pullorum CVCC1809; [18]): 3.13 µM; hemolysis (mouse erythrocytes): 4.59%; MIC (A. veronii ATCC35624; [19]): 16 µg/mL; MIC (A. veronii ATCC35624; ATCC35624): 6.25 µM; MIC (E. coli CVCCO157): 8 µg/mL; MIC (E. coli CVCCO157; read-out: MIC): 3.13 µM
